A short description of the assay: Electrophysiological data on Xenopus oocytes, expressing homomeric kainate receptor (GluR5).

For orientation: EC50 means the concentration needed to bring the measured effect to its halfway point. High values mean a less potent agent, low ones a more potent agent.

Each structure is given as a SMILES string.

In the case of `CC(C)(C)c1s[nH]c(=O)c1C[C@H](N)C(=O)O` [2-Amino-3-(5-tert-butyl-3-hydroxy-isothiazol-4-yl)-propionic acid], the EC50 is 100 nM.

The values above are taken from BindingDB's records for doi:10.1021/jm0204441 (The Danish University of Pharmaceutical Sciences, 2003).
